Inhibition data for 22 compounds are collected here from EP2567959B1, “6-(4-HYDROXY-PHENYL)-3-STYRYL-1H-PYRAZOLO[3,4-B]PYRIDINE-4-CARBOXYLIC ACID AMIDE DERIVATIVES AS KINASE INHIBITORS” (SANOFI, priority 2011, dated 2013).

T1 sequence (P05771 1-673 isoform P05771-2): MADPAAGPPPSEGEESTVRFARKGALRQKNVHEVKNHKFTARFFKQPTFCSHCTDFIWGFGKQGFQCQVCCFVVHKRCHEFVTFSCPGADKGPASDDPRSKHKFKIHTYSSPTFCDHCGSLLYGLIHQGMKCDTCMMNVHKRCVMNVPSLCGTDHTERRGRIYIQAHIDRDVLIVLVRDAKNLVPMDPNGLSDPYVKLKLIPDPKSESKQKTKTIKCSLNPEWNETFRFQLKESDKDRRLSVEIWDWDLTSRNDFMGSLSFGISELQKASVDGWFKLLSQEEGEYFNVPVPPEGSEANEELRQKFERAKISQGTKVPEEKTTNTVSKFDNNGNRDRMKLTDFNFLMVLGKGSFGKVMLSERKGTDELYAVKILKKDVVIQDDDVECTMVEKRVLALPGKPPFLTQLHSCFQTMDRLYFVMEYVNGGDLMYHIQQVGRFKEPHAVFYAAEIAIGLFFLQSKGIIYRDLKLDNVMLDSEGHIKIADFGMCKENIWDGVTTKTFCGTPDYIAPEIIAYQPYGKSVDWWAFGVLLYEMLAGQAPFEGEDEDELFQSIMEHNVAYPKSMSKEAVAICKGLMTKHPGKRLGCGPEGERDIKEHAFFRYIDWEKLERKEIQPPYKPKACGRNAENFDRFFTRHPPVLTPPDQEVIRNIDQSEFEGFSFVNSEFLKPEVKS

One experiment addresses T1, human full-length recombinant PKC βII (Homo sapiens, UniProt P05771).
T1 construct: Active human full-length recombinant PKC βII; purchased Invitrogen GmbH, Darmstadt, Germany
The experiment can be described thus: Determination of PKC βII inhibition (Caliper mobility-shift kinase assay, phosphorylation of fluorescein peptide substrate). Particulars: 1 h; final compound concentration 1.14 µM (±0.15 µM); 60 min incubation at 32 °C. It counts as biochemical. The procedure:
Determination of PKC βII inhibition
PKC βII inhibition was determined according to the following protocol:
Active human full-length recombinant PKC βII and the peptide substrate, Fluorescein-RFARKGSLRQKNV, were purchased from Invitrogen GmbH, Darmstadt, Germany. Adenosine-5'-triphosphate (ATP), bovine serum albumine (BSA), dimethylsulphoxide (DMSO), 4-(2-hydroxyethyl)piperazine-1-ethanesulfonic acid (Hepes), Triton X-100, 1,2-Dioleoyl-sn-glycerol (DAG), L-α-Phosphatidyl-L-serine (PS), calcium chloride (CaCl2), and Pluronic F-68 were purchased from Sigma-Aldrich, Munich, Germany. Magnesium chloride, 1 M sodium hydroxide solution, 1M hydrochloric acid solution and EDTA were obtained from Merck Biosciences, Darmstadt, Germany.
Test compounds were diluted to three times the test concentration in buffer 1 (30 mM Hepes-NaOH, pH 7.4, 0.01 % Pluronic F-68 and 3 % (v/v) DMSO). The PKC βII enzyme was diluted to a concentration of 30 ng/ml in buffer 2 (30 mM Hepes-NaOH, pH 7.4, 15 mM MgCl2,150 µM CaCl2, 150 µg/ml PS, 60 µg/ml DAG, and 0.045 % (w/v) Triton X-100). The peptide substrate and ATP were diluted to concentrations of 3 µM and 120 µM, respectively, in buffer 2. Two µl of the compound solution were mixed with 2 µl of the diluted enzyme in a 384-well small volume microtiter plate (Greiner, Bio-One, Frickenhausen, Germany), and the kinase reaction was initiated by addition of 2 µl of the solution containing peptide substrate and ATP. After 60 min incubation at 32 °C, the reaction was stopped by addition of 20 µl of a solution containing 130 mM Hepes-NaOH, pH 7.4, 0.0195 % (v/v) Brij-35, 6.5 mM EDTA, 0.13 % chip coating reagent 3 (Caliper Lifescience Inc, Hopkinton, MA) and 6.5 % (v/v) DMSO. Phosphorylation of the substrate peptide was then detected on a Caliper 3000 instrument essentially as described by Pommereau et al (J. Biomol. Screening 2004, 9(5), 409-416). Separation conditions were as follows: Pressure -0.8 psi, upstream voltage - 3000 V, downstream voltage -800 V. Positive controls (buffer 1 instead of compound) and negative controls (buffer 1 instead of compound and buffer 2 instead of kinase solution) were run in parallel on each plate. Fractional turnover (R) was determined as the height of the peak of the phosphorylated peptide product divided by the sum of the unphosphorylated substrate and phosphorylated product peak heights. Percent-inhibition values for the test compounds were determined using the formula % Inhibition = 100*(1-(Rcompound-Rnegative control)/(Rpositive control-Rnegative control). [formula]
In the following table % inhibition values observed with example compounds at a final concentration of 1.14 µM (±0.15 µM) are listed: […]
By inhibition is commonly meant the drop in the measured response relative to a control, in per cent. Consider `O=C(c1cc(-c2ccc(O)cc2)nc2[nH]nc([C@H]3C[C@@H]3c3ccccc3)c12)N1CCNCC1` (racemic) [Example 18, (±)-[6-(4-Hydroxy-phenyl)-3 trans-(2-phenyl-cyclopropyl)-1 H-pyrazolo[3,4-b]pyridin-4-yl]-piperazin-1-yl-methanone], for which the inhibition at 1.14 µM was found to be 94%.

The same experiment, now with this note: final compound concentration 1.14 µM (±0.15 µM); 60 min incubation at 32 °C.
Consider `O=C(c1cc(-c2ccc(O)cc2)nc2[nH]nc(/C=C/c3ccc(Cl)cc3)c12)N1CCNCC1` [Example 1, [3-[(E)-2-(4-Chloro-phenyl)-vinyl]-6-(4-hydroxy-phenyl)-1 H-pyrazolo[3,4-b]pyridin-4-yl]-piperazin-1-yl-methanone], for which the inhibition at 1.14 µM worked out at 86%. Turning to `O=C(c1cc(-c2ccc(O)cc2)nc2[nH]nc(/C=C/c3ccccc3)c12)N1CCNCC1` [Example 2, [6-(4-Hydroxy-phenyl)-3-((E)-styryl)-1H-pyrazolo[3,4-b]pyridin-4-yl]-piperazin-1-yl-methanone], the inhibition at 1.14 µM was 97%. The same measure, in the same setting: as for `CC1(C)CNCCN1C(=O)c1cc(-c2ccc(O)cc2)nc2[nH]nc(/C=C/c3ccccc3)c12` [Example 3, (2,2-Dimethyl-piperazin-1-yl)-[6-(4-hydroxy-phenyl)-3-((E)-styryl)-1 H-pyrazolo[3,4-b]pyridin-4-yl]-methanone], the figure is 88%; as for `CC1(C)CN(C(=O)c2cc(-c3ccc(O)cc3)nc3[nH]nc(/C=C/c4ccccc4)c23)CCN1` [Example 4, (3,3-Dimethyl-piperazin-1-yl)-[6-(4-hydroxy-phenyl)-3-((E)-styryl)-1H-pyrazolo[3,4-b]pyridin-4-yl]-methanone], 99%; as for `CC(C)C[C@H]1CN(C(=O)c2cc(-c3ccc(O)cc3)nc3[nH]nc(/C=C/c4ccccc4)c23)CCN1` [Example 5, [6-(4-Hydroxy-phenyl)-3-((E)-styryl)-1H-pyrazolo[3,4-b]pyridin-4-yl]-((S)-3-isobutyl-piperazin-1-yl)-methanone], 85%.

Take `C[C@H]1CNCCN1C(=O)c1cc(-c2ccc(O)cc2)nc2[nH]nc(/C=C/c3ccccc3)c12` [Example 6, [6-(4-Hydroxy-phenyl)-3-((E)-styryl)-1H-pyrazolo[3,4-b]pyridin-4-yl]-((S)-2-methyl-piperazin-1-yl)-methanone]: the inhibition at 1.14 µM came to 98%. The same measure, in the same setting: under `Cc1cc(O)ccc1-c1cc(C(=O)N2CCNCC2)c2c(/C=C/c3ccccc3)n[nH]c2n1` [Example 7, [6-(4-Hydroxy-2-methyl-phenyl)-3-((E)-styryl)-1H-pyrazolo[3,4-b]pyridin-4-yl]-piperazin-1-yl-methanone] stands 96%; under `C[C@@H]1CN(C(=O)c2cc(-c3ccc(O)cc3)nc3[nH]nc(/C=C/c4ccccc4)c23)[C@@H](C)CN1` [Example 8, ((2S,5R)-2,5-Dimethyl-piperazin-1-yl)-[6-(4-hydroxy-phenyl)-3-((E)-styryl)-1H-pyrazolo[3,4-b]pyridin-4-yl]-methanone], 97%; under `COc1cc(-c2cc(C(=O)N3CCNCC3)c3c(/C=C/c4ccccc4)n[nH]c3n2)ccc1O` [Example 9, [6-(4-Hydroxy-3-methoxy-phenyl)-3-((E)-styryl)-1H-pyrazolo[3,4-b]pyridin-4-yl]-piperazin-1-yl-methanone], 55%. Still for that read-out and setting: under `CC[C@H]1CNCCN1C(=O)c1cc(-c2ccc(O)cc2)nc2[nH]nc(/C=C/c3ccccc3)c12` [Example 10, ((S)-2-Ethyl-piperazin-1-yl)-[6-(4-hydroxy-phenyl)-3-((E)-styryl)-1H-pyrazolo[3,4-b]pyridin-4-yl]-methanone] stands 87%. Take `C[C@H]1CNCCN1C(=O)c1cc(-c2ccc(O)cc2F)nc2[nH]nc(/C=C/c3ccccc3)c12` [Example 11, [6-(2-Fluoro-4-hydroxy-phenyl)-3-((E)-styryl)-1H-pyrazolo[3,4-b]pyridin-4-yl]-((S)-2-methyl-piperazin-1-yl)-methanone]: the inhibition at 1.14 µM amounted to 99%.

Regarding `O=C(c1cc(-c2ccc(O)c(F)c2)nc2[nH]nc(/C=C/c3ccccc3)c12)N1CCNCC1` [Example 12, [6-(3-Fluoro-4-hydroxy-phenyl)-3-((E)-styryl)-1H-pyrazolo[3,4-b]pyridin-4-yl]-piperazin-1-yl-methanone], the inhibition at 1.14 µM was determined as 97%.

Take `O=C(c1cc(-c2ccc(O)cc2Cl)nc2[nH]nc(/C=C/c3ccccc3)c12)N1CCNCC1` [Example 13, [6-(2-Chloro-4-hydroxy-phenyl)-3-((E)-styryl)-1 H-pyrazolo[3,4-b]pyridin-4-yl]-piperazin-1-yl-methanone]: the inhibition at 1.14 µM came to 110%. Turning to `CN(C)Cc1cccc(/C=C/c2n[nH]c3nc(-c4ccc(O)cc4)cc(C(=O)N4CCNCC4)c23)c1` [Example 14, [3-[(E)-2-(3-Dimethylaminomethyl-phenyl)-vinyl]-6-(4-hydroxy-phenyl)-1H-pyrazolo[3,4-b]pyridin-4-yl]-piperazin-1-yl-methanone], the inhibition at 1.14 µM worked out at 100%. For the compound `CS(=O)(=O)Cc1cccc(/C=C/c2n[nH]c3nc(-c4ccc(O)cc4)cc(C(=O)N4CCNCC4)c23)c1` [Example 15, {6-(4-Hydroxy-phenyl)-3-[(E)-2-(3-methanesulfonylmethyl-phenyl)-vinyl]-1H-pyrazolo[3,4-b]pyridin-4-yl}-piperazin-1-yl-methanone], the inhibition at 1.14 µM came to 99%.

In the case of `O=C(c1cc(-c2ccc(O)cc2)nc2[nH]nc(/C=C/c3ccccc3)c12)N1CCNC[C@@H]1CO` [Example 16, ((R)-2-Hydroxymethyl-piperazin-1-yl)-[6-(4-hydroxy-phenyl)-3-((E)-styryl)-1H-pyrazolo[3,4-b]pyridin-4-yl]-methanone], the inhibition at 1.14 µM is 96%. Same read-out and setting: under `O=C(c1cc(-c2ccc(O)cc2)nc2[nH]nc(CCc3ccccc3)c12)N1CCNCC1` [Example 17, [6-(4-Hydroxy-phenyl)-3-phenethyl-1H-pyrazolo[3,4-b]pyridin-4-yl]-piperazin-1-yl-methanone] stands 94%. The same measure, in the same setting: as for `O=C(c1ccc(/C=C/c2n[nH]c3nc(-c4ccc(O)cc4)cc(C(=O)N4CCNCC4)c23)cc1)N1CCCCC1` [Example 19, (6-(4-Hydroxy-phenyl)-3-{(E)-2-[4-(piperidine-1-carbonyl)-phenyl]-vinyl}-1Hpyrazolo[3,4-b]pyridin-4-yl)-piperazin-1-yl-methanone], the figure is 99%. Still for that read-out and setting: as for `O=C(c1cc(-c2ccc(O)cc2)nc2[nH]nc(/C=C/c3cccc(N4CCCC4=O)c3)c12)N1CCNCC1` [Example 20, 1-(3-{(E)-2-[6-(4-Hydroxy-phenyl)-4-(piperazine-1-carbonyl)-1H-pyrazolo[3,4-b]pyridin-3-yl]-vinyl}-phenyl)-pyrrolidin-2-one], the figure is 115%; as for `Cc1ccc(/C=C/c2n[nH]c3nc(-c4ccc(O)cc4)cc(C(=O)N4CCNCC4)c23)cc1` [Example 21, [6-(4-Hydroxy-phenyl)-3-((E)-2-p-tolyl-vinyl)-1H-pyrazolo[3,4-b]-pyridin-4-yl]-piperazin-1-yl-methanone], 98%. As to `CS(=O)(=O)c1cccc(/C=C/c2n[nH]c3nc(-c4ccc(O)cc4)cc(C(=O)N4CCNCC4)c23)c1` [Example 22, {6-(4-hydroxy-phenyl)-3-[(E)-2-(3-methanesulfonyl-phenyl)-vinyl]-1H-pyrazolo[3,4-b]-pyridin-4-yl}-piperazin-1-yl-methanone], the inhibition at 1.14 µM worked out at 100%.
